Laboratory results published in patent US10280171B2, “Heterocyclic inhibitors of PTPN11” (priority 2016, dated 2019).
pIC50: −log10 of the molar value. Like-named read-outs stand apart in the source and are kept apart here.

Legend:
[1] = target: PTPN11-E76K mutant enzyme (Homo sapiens (Human), UniProt Q06124, E76K); test: PTPN11 Enzymatic Assay (DiFMUP phosphatase activity); type: biochemical; conditions: DiFMUP 50 μM, 30 min preincubation
Protocol: Reaction was initiated by addition of DiFMUP (50 μM) at room temperature in 384-well black plate with a final reaction volume of 20 uL in assay buffer. […] Dose-response curves were analyzed using IC50 regression curve fitting (GeneData Screener). Curves were normalized to a high controls without inhibitor, and low controls without enzyme.

[2] = test system: Phospho-ERK levels in KYSE-520 cells; test: pERK AlphaScreen Protocol; type: cell-based; conditions: KYSE-520 cells, 2 hr compound incubation, phospho-ERK1/2 AlphaScreen SureFire, read-out: PERK Avg IC50
Protocol: KYSE-520 cells (10 k cells/well) were grown in 384-well plate in 20 uL of medium (RPMI-1640, without phenol red, containing 10% FBS) at 37° C. with 5% CO2 overnight. DMSO (control) or increasing concentrations of compounds were diluted in medium, added to the 384-well plate (5 uL/well, final DMSO concentration of 1%), and cells were then incubated with compounds for 2 hr. Phospho-ERK levels were measured using phospho-ERK1/2 AlphaScreen SureFire (PerkinElmer, TGRESB10K) following manufacturer's recommendations. Dose-response curves were analyzed using IC50 regression curve fitting (GeneData Screener). Curves were normalized to a high control without inhibitor (DMSO only), and low control (1 μM selumetinib).

[3] = full length PTPN11-E76K mutant enzyme 250 pM, read-out: PTPN11-E76K Avg IC50

Sequence of PTPN11-E76K mutant enzyme (Q06124 whole entry E76K): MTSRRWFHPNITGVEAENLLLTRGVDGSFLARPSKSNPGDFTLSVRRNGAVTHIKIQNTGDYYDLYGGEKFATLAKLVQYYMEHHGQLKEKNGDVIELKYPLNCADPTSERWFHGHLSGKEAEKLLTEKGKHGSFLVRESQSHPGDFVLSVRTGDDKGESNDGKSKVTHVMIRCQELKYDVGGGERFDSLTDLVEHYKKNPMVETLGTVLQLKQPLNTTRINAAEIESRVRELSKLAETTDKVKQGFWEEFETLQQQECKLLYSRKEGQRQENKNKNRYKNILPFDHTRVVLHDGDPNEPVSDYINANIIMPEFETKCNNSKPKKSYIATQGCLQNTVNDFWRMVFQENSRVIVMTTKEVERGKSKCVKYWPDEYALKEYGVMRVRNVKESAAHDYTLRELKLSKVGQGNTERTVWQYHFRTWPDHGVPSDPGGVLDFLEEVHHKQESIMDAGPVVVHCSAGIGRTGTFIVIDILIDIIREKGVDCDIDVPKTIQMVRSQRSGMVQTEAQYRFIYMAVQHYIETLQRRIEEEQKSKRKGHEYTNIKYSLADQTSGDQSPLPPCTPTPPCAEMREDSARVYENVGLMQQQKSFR

SMILES	pIC50 [1, 3]	pIC50 ([2]; Homo sapiens, KYSE-520, 2 h)	further results
COc1cc(-c2n[nH]c3nc(N4CCC(C)(CN)CC4)cnc23)ccc1Cl [Example 33, (1-(3-(4-Chloro-3-methoxyphenyl)-1H-pyrazolo[3,4-b]pyrazin-6-yl)-4-methylpiperidin-4-yl)methanamine]	7.14	7.02	
Nc1cc(-c2n[nH]c3nc(N4CCC5(CC4)COC[C@H]5N)cnc23)c(Cl)cn1 [Example 137, (4S)-8-[3-(2-amino-5-chloropyridin-4-yl)-1H-pyrazolo[3,4-b]pyrazin-6-yl]-2-oxa-8-azaspiro[4.5]-decan-4-amine]	6.30	5.99	
CC1(N)CCN(c2cnc3c(-c4cccnc4Cl)n[nH]c3n2)CC1 [Example 23, 1-(3-(2-chloro-pyridin-3-yl)-1H-pyrazolo[3,4-b]-pyrazin-6-yl)-4-methyl-piperidin-4-amine]	5.74	6.37	
COc1cc(-c2n[nH]c3nc(N4CCC5(CCC[C@H]5N)CC4)cnc23)ccc1Cl [Example 34, (R)-8-(3-(4-chloro-3-methoxyphenyl)-1H-pyrazolo[3,4-b]-pyrazin-6-yl)-8-aza-spiro[4.5]decan-1-amine]	6.99		
CC1(CN)CCN(c2cnc3c(-c4cn[nH]c4C(F)(F)F)n[nH]c3n2)CC1 [Example 103, (4-Methyl-1-(3-(5-(trifluoromethyl)-1H-pyrazol-4-yl)-1H-pyrazolo[3,4-b]-pyrazine-6-yl)piperidin-4-yl)methanamine]	5.58	5.79	
NCC1(O)CCN(c2cnc3c(-c4cc(N)ncc4Cl)n[nH]c3n2)CC1 [Example 134, 1-[3-(2-amino-5-chloropyridin-4-yl)-1H-pyrazolo[3,4-b]-pyrazin-6-yl]-4-(aminomethyl)-piperidin-4-ol]	5.81	5.70	
Cc1ncccc1-c1n[nH]c2nc(N3CCC(C)(CN)CC3)cnc12 [Example 30, (4-methyl-1-(3-(2-methylpyridin-3-yl)-1H-pyrazolo[3,4-b]pyrazin-6-yl)-piperidin-4-yl) methanamine]	5.60	5.80	
CC1(N)CCN(c2cnc3c(-c4cccc(F)c4Cl)n[nH]c3n2)CC1 [Example 24, 1-(3-(2-chloro-3-fluorophenyl)-1H-pyrazolo[3,4-b]-pyrazin-6-yl)-4-methyl-piperidin-4-amine]	6.69	6.85	
NC1C(F)CCC12CCN(c1cnc3c(-c4cccc(Cl)c4Cl)n[nH]c3n1)CC2 (single isomer, unassigned) [Example 64B, 8-(3-(2,3-Dichlorophenyl)-1H-pyrazolo[3,4-b]pyrazin-6-yl)-2-fluoro-8-azaspiro[4.5]decan-1-amine]			pIC50 ([1]; PTPN11-E76K Avg IC50, full length PTPN11-E76K mutant enzyme 250 pM): 6.66; pIC50 [2]: 7.15
Cc1c(-c2n[nH]c3nc(N4CCC(C)(CN)CC4)cnc23)ccnc1N [Example 124, 4-(6-(4-(Aminomethyl)-4-methylpiperidin-1-yl)-1H-pyrazolo[3,4-b]pyrazin-3-yl)-3-methylpyridin-2-amine]	6.42		
N[C@@H]1CCCC12CCN(c1cnc3c(-c4ccccc4Cl)n[nH]c3n1)CC2 [Example 54, (R)-8-(3-(2-chlorophenyl)-1H-pyrazolo[3,4-b]-pyrazin-6-yl)-8-aza-spiro[4.5]decan-1-amine]	6.92	7.19	
CNc1nccc(-c2n[nH]c3nc(N4CCC(C)(N)CC4)cnc23)c1Cl [Example 112, 4-(6-(4-Amino-4-methylpiperidin-1-yl)-1H-pyrazolo[3,4-b]pyrazin-3-yl)-3-chloro-N-methylpyridin-2-amine]		7.24	
Cc1c(-c2n[nH]c3nc(N4CCC(C)(N)CC4)cnc23)ccnc1N [Example 123, 4-(6-(4-amino-4-methylpiperidin-1-yl)-1H-pyrazolo[3,4-b]pyrazin-3-yl)-3-methylpyridin-2-amine]	6.17		
N[C@@H]1CCCC12CCN(c1cnc3c(-c4cccc(Cl)c4)n[nH]c3n1)CC2 [Example 44, (R)-8-(3-(3-chloro-phenyl)-1H-pyrazolo[3,4-b]-pyrazin-6-yl)-8-aza-spiro[4.5]-decan-1-amine]	6.37	6.52	
N[C@@H]1CCCC12CCN(c1cnc3c(-c4ccc(Cl)cc4)n[nH]c3n1)CC2 [Example 17, (R)-8-(3-(4-chloro-phenyl)-1H-pyrazolo[3,4-b]-pyrazin-6-yl)-8-aza-spiro[4.5]decan-1-amine]	6.93	7.09	
Cc1c(-c2n[nH]c3nc(N4CCC5(CCC[C@H]5N)CC4)cnc23)ccnc1N [Example 122, (R)-8-(3-(2-amino-3-methylpyridin-4-yl)-1H-pyrazolo[3,4-b]pyrazin-6-yl)-8-azaspiro[4.5]decan-1-amine]	6.69		

SMILES	pIC50 [1, 3]	pIC50 ([2]; Homo sapiens, KYSE-520, 2 h)	further results
N[C@@H]1COCC12CCN(c1cnc3c(-c4cccc(F)c4Cl)n[nH]c3n1)CC2 [Example 42, (S)-8-(3-(2-chloro-3-fluorophenyl)-1H-pyrazolo[3,4-b]-pyrazin-6-yl)-2-oxa-8-azaspiro[4.5]-decan-4-amine]		7.20	
Nc1nccc(-c2n[nH]c3nc(N4CCC5(CC4)C[C@H](O)C[C@H]5N)cnc23)c1Cl [Example 126, (2S,4R)-4-Amino-8-(3-(2-amino-3-chloropyridin-4-yl)-1H-pyrazolo[3,4-b]pyrazin-6-yl)-8-azaspiro[4.5]decan-2-ol]	7.12		
Nc1nccc(-c2n[nH]c3nc(N4CCC5(CCC5N)CC4)cnc23)c1Cl (single isomer, unassigned; enantiomer 2) [Example 136b, 7-[3-(2-amino-3-chloropyridin-4-yl)-1H-pyrazolo-[3,4-b]-pyrazin-6-yl]-7-aza-spiro[3.5]nonan-1-amine, enantiomer 2]			pIC50 [2]: 5.71
Nc1nccc(-c2n[nH]c3nc(N4CCC5(CCC5N)CC4)cnc23)c1Cl (stereo not drawn) [Example 115, 7-(3-(2-Amino-3-chloropyridin-4-yl)-1H-pyrazolo[3,4-b]pyrazin-6-yl)-7-azaspiro[3.5]nonan-1-amine]		6.37	
NC1(CO)CCN(c2cnc3c(-c4cccnc4Cl)n[nH]c3n2)CC1 [Example 59, (4-amino-1-(3-(2-chloropyridin-3-yl)-1H-pyrazolo[3,4-b]pyrazin-6-yl)-piperidin-4-yl)-methanol]		5.98	
Cc1c(Cl)cccc1-c1n[nH]c2nc(N3CCC4(CCC[C@H]4N)CC3)cnc12 [Example 51, (R)-8-(3-(3-chloro-2-methylphenyl)-1H-pyrazolo[3,4-b]pyrazin-6-yl)-8-azaspiro[4.5]decan-1-amine]	6.82		
CC1(N)CCN(c2cnc3c(-c4c(F)cccc4Cl)n[nH]c3n2)CC1 [Example 32, 1-(3-(2-chloro-6-fluorophenyl)-1H-pyrazolo[3,4-b]-pyrazin-6-yl)-4-methylpiperidin-4-amine]		6.55	
NC1(CO)CCN(c2cnc3c(-c4cccc(F)c4Cl)n[nH]c3n2)CC1 [Example 62, (4-amino-1-(3-(2-chloro-3-fluoro-phenyl)-1H-pyrazolo[3,4-b]-pyrazin-6-yl)-piperidin-4-yl)-methanol]		6.51	
NCC1(O)CCN(c2cnc3c(-c4c(F)cccc4Cl)n[nH]c3n2)CC1 [Example 63, 4-(aminomethyl)-1-(3-(2-chloro-6-fluorophenyl)-1H-pyrazolo [3,4-b]-pyrazin-6-yl)-piperidin-4-ol]		6.16	
N[C@@H]1COCC12CCN(c1cnc3c(-c4cccc(Cl)c4Cl)n[nH]c3n1)CC2 [Example 38, (S)-8-(3-(2,3-Dichlorophenyl)-1H-pyrazolo[3,4-b]pyrazin-6-yl)-2-oxa-8-azaspiro[4.5]-decan-4-amine]		7.40	
N[C@@H]1CCCC12CCN(c1cnc3c(-c4ccc(Cl)c(Cl)c4)n[nH]c3n1)CC2 [Example 46, (R)-8-(3-(3,4-dichloro-phenyl)-1H-pyrazolo[3,4-b]-pyrazin-6-yl)-8-aza-spiro[4.5]decan-1-amine]		6.18	
COc1cc(Cl)cc(-c2n[nH]c3nc(N4CCC5(CCC[C@H]5N)CC4)cnc23)c1 [Example 52, (R)-8-(3-(3-chloro-5-methoxyphenyl)-1H-pyrazolo[3,4-b]pyrazin-6-yl)-8-azaspiro[4.5]decan-1-amine]	6.50		
N[C@@H]1CCCC12CCN(c1cnc3c(-c4cccnc4Cl)n[nH]c3n1)CC2 [Example 53, (R)-8-(3-(2-chloro-pyridin-3-yl)-1H-pyrazolo[3,4-b]-pyrazin-6-yl)-8-aza-spiro[4.5]decan-1-amine]		6.65	
Nc1nccc(-c2n[nH]c3nc(N4CCC5(CCC5N)CC4)cnc23)c1Cl (single isomer, unassigned; enantiomer 1) [Example 136a, 7-[3-(2-amino-3-chloropyridine-4-yl)-1H-pyrazolo[3,4-b]-pyrazin-6-yl]-7-aza-spiro[3.5]nonan-1-amine, enantiomer 1]		5.64	
CC1(N)CCN(c2cnc3c(-c4cccc(Cl)c4F)n[nH]c3n2)CC1 [Example 26, 1-(3-(3-chloro-2-fluorophenyl)-1H-pyrazolo[3,4-b]-pyrazin-6-yl)-4-methylpiperidin-4-amine]	6.67		
